The source of these data is patent US7795315B2, “N-(2-amino-phenyl)-amide derivatives” (Hoffman-La Roche Inc., priority 2008, dated 2010).

In general, GI50 refers to the concentration at which growth is held to half of that of the control.

Structures are written as SMILES.

Common to all, as to type: cell-based
Test [1] has as its system p21 promoter-luciferase construct in HeLa cells. Nature of the test: p21 reporter gene induction. The settings on record: 3 micromolar, 15 hours, relative to SNDX-275. The method, then:
(§1) The novel compounds of the present invention were tested for their ability to induce p21 gene expression using a reporter gene assay involving HeLa cells transfected with a p21 promoter-luciferase construct. The p21 promoter contained the Sp1/Sp3 binding site for HDAC but not the upstream p53 binding site. Briefly, the day before transfection, HeLa cells were seeded at 11,000 cells/well in a 96-well culture plate and incubated at 37 degrees Celsius in 5% CO2 overnight. For transfection, the medium was removed and replaced with 100 microliters/well transfection media previously prepared as follows: 5 microliters serum-free DMEM, 0.15 microliters Fugene 6 reagent, 40 ng p21-luc, 10 ng GFP were mixed gently and incubated at room temperature for 30 minutes; then 98 microliters DMEM (with 10% FBS, 1% penicillin and streptomycin) was added to the DNA:Fugene 6 reagent complex and mixed gently. After incubating the cells for 24 hours at 37 degrees Celsius in 5% CO2, fresh media and test compounds were added to the wells and the cells further incubated for 15 hours at 37 degrees Celsius in 5% CO2. Cells were lysed by adding 80 microliters/well of a cell culture lysis reagent (Promega). 50 microliters of each lysate was taken for GFP detection using an excitation wavelength of 486 nm and detection at 527 nm. 100 microliters Luciferase assay reagent (Promega) was then added to every 20 microliters cell lysate for luminometer detection. […] Induction activity for specific representative compounds can be found in Table 4.
Background: In a reporter assay the amount or activity of a reporter protein is the signal.

Test [2] has as its system klf2 promoter-luciferase construct in A204 cells. Nature of the test: klf2 reporter gene induction (p21 versus klf2 selectivity). The settings on record: SNDX-275 p21/klf2 ratio defined as 1.0; for p21/klf2 (RP3): relative selectivity compared with SNDX-275: 3 micromolar; for p21/klf2 (RP10): relative selectivity compared with SNDX-275: 10 micromolar. The method, then:
as §1
The novel compounds of the present invention were tested for their ability to induce klf2 gene expression using a reporter gene assay involving A204 cells transfected with a klf2 promoter-luciferase construct. The klf2 promoter contained the MEF2 binding site for HDAC3/class IIa HDAC complex. Briefly, the day before transfection, A204 cells were seeded at 11,000 cells/well in a 96-well culture plate and incubated at 37 degrees Celsius in 5% CO2 overnight. For transfection, the medium was removed and replaced with 100 microliters/well transfection media previously prepared as follows: 5 microliters serum-free DMEM, 0.15 microliters Fugene 6 reagent, 40 ng klf2-luc, 10 ng GFP were mixed gently and incubated at room temperature for 30 minutes; then 98 microliters DMEM (with 10% FBS, 1% penicillin and streptomycin) was added to the DNA:Fugene 6 reagent complex and mixed gently. After incubating the cells for 24 hours at 37 degrees Celsius in 5% CO2, fresh media and test compounds were added to the wells and the cells further incubated for 15 hours at 37 degrees Celsius in 5% CO2. Finally, 10 ng/ml TNF-α was added and the cells further incubated for 4 hours. Cells were lysed by adding 80 microliters/well of a cell culture lysis reagent (Promega). 50 microliters of each lysate was taken for GFP detection using an excitation wavelength of 486 nm and detection at 527 nm. 100 microliters Luciferase assay reagent (Promega) was then added to every 20 microliters cell lysate for luminometer detection.

Test [3] deals with HCT-116 colon cancer cells. Nature of the test: Antiproliferative activity, growth inhibition (MTS/WST assay). The settings on record: Homo sapiens, 72 hour growth inhibition, read-out: GI50 HCT116. The method, then: The novel compounds of the present invention were tested for their ability to inhibit growth of various cancer cell lines (HeLa, MCF7, U2OS, HepG2, HL60, HCT-116) using in vitro growth inhibition assays described below.
Cells were seeded in 96-well culture plates (200 microliters/well at different seeding concentrations depending on cell type) and incubated overnight at 37 degrees Celsius in 5% CO2. After adding compound dilutions to the cells (DMSO concentration kept below 0.5%), the cells were incubated at 37 degrees Celsius in 5% CO2 for 72 hours. The effects on proliferation were determined by addition of MTS reagent (Promega) according to the manufacturer's instruction, followed by incubation for 2 hours at 37 degrees Celsius in 5% CO2, and finally recording the absorbance at 490 nm using an ELISA plate reader.
Similar to MTS assay except that the developer is the CCK-8 reagent (Dojindo) and the plate reader is set to 450 nm absorbance.
GI50 values against HCT-116 colon cancer cells for specific representative compounds can be found in Table 4.

In the case of `Nc1ccccc1NC(=O)/C=C/c1ccc(C(C(=O)Nc2ccc(C(F)(F)F)cc2)N2CCCC2)cc1` (stereo not shown) [Example 9-11, (E)-N-(2-Amino-phenyl)-3-{4-[pyrrolidin-1-yl-(4-trifluoromethyl-phenylcarbamoyl)-methyl]-phenyl}-acrylamide], in test [1], the “p21 (RP3): relative induction potency compared with SNDX-275” value (“p21 (RP3): relative induction potency” for short) is 97%. Further, in test [2], the “p21/klf2 (RP3): relative selectivity compared with SNDX-275” value (“p21/klf2 (RP3): relative selectivity” below) is given as 1.1 and the “p21/klf2 (RP10): relative selectivity compared with SNDX-275” value (from here on “p21/klf2 (RP10): relative selectivity”) worked out at 2.7. For the same compound, in test [3], the GI50 was determined as 900 nM.
In the same order, the values of `CC(C)(C)c1ccc(NC(=O)C(NCCO)c2ccc(/C=C/C(=O)Nc3ccccc3N)cc2)cc1` (stereo not shown) [Example 4-68, (E)-N-(2-Amino-phenyl)-3-{4-[(4-tert-butyl-phenylcarbamoyl)-(2-hydroxy-ethylamino)-methyl]-phenyl}-acrylamide] are 41%, 0.5, 1.3 and 3700 nM.
As for `Nc1ccccc1NC(=O)/C=C/c1ccc(C(NCCCN2CCOCC2)C(=O)Nc2ccc(C(F)(F)F)cc2)cc1` (stereo not shown) [Example 4-5, (E)-N-(2-Amino-phenyl)-3-{4-[(3-morpholin-4-yl-propylamino)-(4-trifluoromethyl-phenylcarbamoyl)-methyl]-phenyl}-acrylamide], the “p21 (RP3): relative induction potency” value in test [1] is 241%. Further, in test [2], the “p21/klf2 (RP3): relative selectivity” value amounted to 1.2 and the “p21/klf2 (RP10): relative selectivity” value amounted to 4.5. Also, in test [3], the GI50 was found to be 800 nM.
In the same order, the values of `Nc1ccccc1NC(=O)/C=C/c1ccc(C(NCCN2CCOCC2)C(=O)Nc2ccc(Cl)cc2)cc1` (stereo not shown) [Example 30-33, (E)-N-(2-Amino-phenyl)-3-{4-[(4-chloro-phenylcarbamoyl)-(2-morpholin-4-yl-ethylamino)-methyl]-phenyl}-acrylamide] are 193%, 2.1, 1.2 and 900 nM.
In the same order, the values of `Nc1ccccc1NC(=O)/C=C/c1ccc(C(NCCN2CCCCC2)C(=O)Nc2ccc(C(F)(F)F)cc2)cc1` (stereo not shown) [Example 4-2, (E)-N-(2-Amino-phenyl)-3-{4-[(2-piperidin-1-yl-ethylamino)-(4-trifluoromethyl-phenylcarbamoyl)-methyl]-phenyl}-acrylamide] are 324%, 2.2, 3.6 and 700 nM.
The corresponding values for `CC(C)c1ccc(NC(=O)C(NCCN2CCOCC2)c2ccc(/C=C/C(=O)Nc3ccccc3N)cc2)cc1` (stereo not shown) [Example 4-37, (E)-N-(2-Amino-phenyl)-3-{4-[(4-isopropyl-phenylcarbamoyl)-(2-morpholin-4-yl-ethylamino)-methyl]-phenyl}-acrylamide] are 60%, 1.1, 1.7 and 1000 nM.
On to `Nc1ccccc1NC(=O)/C=C/c1ccc(C(C(=O)Nc2ccc(C(F)(F)F)cc2)N2CCNCC2)cc1` (stereo not shown) [Example 9-7, (E)-N-(2-Amino-phenyl)-3-{4-[piperazin-1-yl-(4-trifluoromethyl-phenylcarbamoyl)-methyl]-phenyl}-acrylamide], for which, in test [1], the “p21 (RP3): relative induction potency” value is listed as 54%. In addition, in test [2], the “p21/klf2 (RP3): relative selectivity” value worked out at 0.5 and the “p21/klf2 (RP10): relative selectivity” value amounted to 2.1. For the same compound, the GI50 in test [3] was found to be 2500 nM.
In the same order, the values of `Nc1ccccc1NC(=O)/C=C/c1ccc(C(NCCO)C(=O)Nc2ccc(C(F)(F)F)cc2)cc1` (stereo not shown) [Example 4-69, (E)-N-(2-Amino-phenyl)-3-{4-[(2-hydroxy-ethylamino)-(4-trifluoromethyl-phenylcarbamoyl)-methyl]-phenyl}-acrylamide] are 117%, 1.0, 2.3 and 1700 nM.
The corresponding values for `Cc1ccc(NC(=O)C(NCCN2CCOCC2)c2ccc(/C=C/C(=O)Nc3ccccc3N)cc2)cc1` (stereo not shown) [Example 30-54, (E)-N-(2-Amino-phenyl)-3-{4-[(2-morpholin-4-yl-ethylamino)-p-tolylcarbamoyl-methyl]-phenyl}-acrylamide] are 183%, 2.0, 1.3 and 1000 nM.
The corresponding values for `Nc1ccccc1NC(=O)/C=C/c1ccc(C(NCCN2CCOCC2)C(=O)Nc2ccc(OC(F)(F)F)cc2)cc1` (stereo not shown) [Example 4-4, (E)-N-(2-Amino-phenyl)-3-{4-[(2-morpholin-4-yl-ethylamino)-(4-trifluoromethoxy-phenylcarbamoyl)-methyl]-phenyl}-acrylamide] are 125%, 1.2, 3.1 and 1100 nM.
